Results from US6362369B1, “Phthalic acid diamide derivatives fluorine-containing aniline compounds as starting material, agricultural and horticultural insecticides, and a method for application of the insecticides” (Nihon Nohyaku Co., Ltd., priority 1997, dated 2002).

Columns and labels:
[1] = test system: diamondback moth (Plutella xylostella); assay: Insecticidal effect on diamondback moth (Test Example 1); format: in vivo; conditions: for Insecticidal effect, Test Example 1 / Insecticidal effect (Test Example 1), judged from mortality: diamondback moth; for Insecticidal effect on diamondback moth (Test Example 1), judged grade: mortality judged according to the criterion shown in Test Example 1; for Insecticidal effect (Test Example 1), judged from mortality: judged by the criterion of Test Example 1
How it was run: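 Triplicate groups of 10 insects: eggs laid on Chinese cabbage seedling by adults, seedling immersed then air-dried, kept at 25° C. Day-6 hatch counts gave mortality, rated by criterion.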

[2] = test system: rice leafroller (Cnaphalocrocis medinalis); assay: Insecticidal effect on rice leafroller (Test Example 3); format: in vivo; conditions: 500 ppm, 25° C., humidity 70%; for Insecticidal effect, Test Example 3: rice lamina immersed; for Insecticidal effect, Test Example 3 / Insecticidal effect on rice leafroller (Test Example 3), judged grade: four days after inoculation; for Insecticidal effect on rice leafroller (Test Example 3), judged grade / Insecticidal effect (Test Example 3), judged from mortality: rice lamina dip; for Insecticidal effect on rice leafroller (Test Example 3), judged grade: third-instar larvae; for Insecticidal effect (Test Example 3), judged from mortality: 4 days after inoculation
How it was run: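 Insecticidal effect is judged by a predefined criterion from dead/alive counts four days after infesting air-dried lamina with third-instar larvae, kept on moistened filter paper at 25° C, 70% humidity.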

[3] = mortality judged by criterion of Test Example 1
[4] = rice leafroller third-instar larvae
[5] = judged by the mortality criterion of Test Example 1
[6] = third-instar larvae of rice leafroller

Structure (SMILES)	Insecticidal effect, Test Example 1 [1, 3]	Insecticidal effect, Test Example 3 [2, 4]	Insecticidal effect on diamondback moth (Test Example 1), judged grade [1]	Insecticidal effect on rice leafroller (Test Example 3), judged grade [2]	further results
CNC(=O)c1cccc(I)c1C(=O)Nc1ccc(C(F)(F)C(F)(F)F)cc1C [compound 1312]	A (100)	A (100)	–	–	–
CC(C)NC(=O)c1cccc(F)c1C(=O)Nc1cccc(Cl)c1Cl [compound 543]	–	–	A (100)	A (100)	–
CCCc1cc(I)ccc1NC(=O)c1cccc(I)c1C(=O)NC(C)C [compound 952]	A (100)	A (100)	–	–	–
Cc1cc(OC(F)(F)C(F)F)ccc1NC(=O)c1c(Br)cccc1C(=O)NC(C)C [compound 330]	–	–	–	–	Insecticidal effect, Test Example 1 [1, 5]: A (100); Insecticidal effect, Test Example 3 [2, 6]: A (100)
Cc1cc(Cl)ccc1NC(=O)c1ccccc1C(=O)N(C)C(C)C [compound 826]	–	–	A (100)	A (100)	–
CC(C)NC(=O)c1cccc(Cl)c1C(=O)Nc1ccc2oc(C(F)(F)F)nc2c1 [compound 255]	–	–	–	–	Insecticidal effect, Test Example 1 [1, 5]: A (100); Insecticidal effect, Test Example 3 [2, 6]: A (100)
Cc1cc(C(F)(F)C(F)(F)F)ccc1NC(=O)c1c(C)cccc1C(=O)NC(C)(C)C [compound 956]	A (100)	A (100)	–	–	–
Cc1c(Cl)cccc1NC(=O)c1c(F)cccc1C(=O)NC(C)C [compound 544]	–	–	A (100)	A (100)	–
Cc1cc(Oc2ccc(C(F)(F)F)cc2Cl)ccc1NC(=O)c1ccccc1C(=O)NC(C)C [compound 75]	–	–	–	–	Insecticidal effect, Test Example 1 [1, 5]: A (100); Insecticidal effect, Test Example 3 [2, 6]: A (100)
Cc1cc(C(F)(F)C(F)(F)F)ccc1NC(=O)c1cccc(Cl)c1C(=O)NCCCc1ccccc1 [compound 1331]	A (100)	A (100)	–	–	–
Cc1cc(OC(F)F)ccc1NC(=O)c1c(Cl)cccc1C(=O)NC1CC1 [compound 850]	–	–	A (100)	A (100)	–
CCN(CC)C(=O)c1c(C(=O)Nc2ccc(C(F)(F)C(F)(F)F)cc2F)cccc1[N+](=O)[O-] [compound 1134]	A (100)	A (100)	–	–	–
Cc1cc(C(F)(F)C(F)(F)F)ccc1NC(=O)c1c(I)cccc1C(=O)N(C)Cc1ccccc1 [compound 1439]	A (100)	C (89-80)	–	–	–
CC(C)NC(=O)c1c(I)cccc1C(=O)Nc1ccc(C(F)(C(F)(F)F)C(F)(F)F)c2c1CCCC2 [compound 1726]	–	–	–	–	Insecticidal effect (Test Example 1), judged from mortality [1]: A (100); Insecticidal effect (Test Example 3), judged from mortality [2, 6]: A (100)
Cc1cc(C(F)(F)C(F)(F)F)ccc1NC(=O)c1c(Cl)cccc1C(=O)N[C@H](C)CO [compound 1461]	–	–	–	–	Insecticidal effect (Test Example 1), judged from mortality [1]: A (100); Insecticidal effect (Test Example 3), judged from mortality [2, 6]: A (100)
CC(C)NC(=O)c1cccc(Cl)c1C(=O)Nc1ccc(F)cc1Cl [compound 211]	–	–	–	–	Insecticidal effect, Test Example 1 [1, 5]: A (100); Insecticidal effect, Test Example 3 [2, 6]: A (100)
CC(C)NC(=O)c1c(C(=O)Nc2ccc(SC(F)(F)Br)cc2)cccc1[N+](=O)[O-] [compound 1108]	A (100)	A (100)	–	–	–
Cc1cc(Oc2ccc(C(F)(F)F)cn2)ccc1NC(=O)c1cccc([N+](=O)[O-])c1C(=O)NC(C)C [compound 728]	–	–	A (100)	A (100)	–
Cc1cc(C(F)(F)C(F)(F)F)ccc1NC(=O)c1cccc(Cl)c1C(=O)NCCc1cccc(Cl)c1 [compound 1358]	A (100)	C (89-80)	–	–	–
Cc1ccc(NC(=O)c2cccc([N+](=O)[O-])c2C(=O)NC(C)C)c(Cl)c1 [compound 656]	–	–	A (100)	A (100)	–
CCCNC(=O)c1cccc(I)c1C(=O)Nc1ccc(C(F)(F)C(F)(F)F)cc1C [compound 1304]	A (100)	A (100)	–	–	–
CCCNC(=O)c1c(I)cccc1C(=O)Nc1cccc(Cl)c1C [compound 959]	A (100)	A (100)	–	–	–
Cc1cc(OC(F)F)ccc1NC(=O)c1cccc([N+](=O)[O-])c1C(=O)NCCF [compound 863]	–	–	A (100)	B (99-90)	–
CC(C)NC(=O)c1cccc(F)c1C(=O)Nc1ccc2c(c1)OCO2 [compound 580]	–	–	A (100)	A (100)	–

Structure (SMILES)	Insecticidal effect, Test Example 1 [1, 3]	Insecticidal effect, Test Example 3 [2, 4]	Insecticidal effect on diamondback moth (Test Example 1), judged grade [1]	Insecticidal effect on rice leafroller (Test Example 3), judged grade [2]	further results
CCN(CC)C(=O)c1c(C(=O)Nc2ccc(OC(F)(F)C(F)F)cc2C)cccc1[N+](=O)[O-] [compound 1132]	A (100)	A (100)	–	–	–
CC(C)NC(=O)c1c(I)cccc1C(=O)Nc1cccc(C(F)(F)F)c1 [compound 348]	–	–	–	–	Insecticidal effect, Test Example 1 [1, 5]: A (100); Insecticidal effect, Test Example 3 [2, 6]: A (100)
Cc1cc(OC(F)(F)C(F)C(F)(F)F)ccc1NC(=O)c1c(I)cccc1C(=O)NC(C)C (stereo not shown) [compound 456]	–	–	A (100)	A (100)	–
Cc1cc(C(F)(F)C(F)(F)F)ccc1NC(=O)c1c(Cl)cccc1C(=O)NCc1cccnc1 [compound 1420]	A (100)	A (100)	–	–	–
Cc1cc(OC(F)F)ccc1NC(=O)c1cccc([S+]([O-])CC(F)(F)F)c1C(=O)NC(C)C (stereo not shown) [compound 799]	–	–	A (100)	A (100)	–
CC(C)NC(=O)c1c(C(=O)Nc2cccc(OC(F)F)c2)cccc1[N+](=O)[O-] [compound 616]	–	–	A (100)	D (79-50)	–
Cc1cc(Cl)ccc1NC(=O)c1cccc(SC(C)C)c1C(=O)NC(C)C [compound 788]	–	–	C (89-80)	C (89-80)	–
CCN(CC)C(=O)c1cc(Cl)cc(I)c1C(=O)Nc1ccc(C(F)(F)C(F)(F)F)cc1C [compound 1281]	A (100)	A (100)	–	–	–
C=CC(C)(C)NC(=O)c1cccc(Cl)c1C(=O)Nc1ccc(C(F)(F)C(F)(F)F)cc1C [compound 1589]	–	–	–	–	Insecticidal effect (Test Example 1), judged from mortality [1]: A (100); Insecticidal effect (Test Example 3), judged from mortality [2, 6]: A (100)
CC(C)NC(=O)c1cccc(Cl)c1C(=O)Nc1ccc(C(C)(C)C)cc1 [compound 196]	–	–	–	–	Insecticidal effect, Test Example 1 [1, 5]: A (100); Insecticidal effect, Test Example 3 [2, 6]: D (79-50)
Cc1ccc(C)c(NC(=O)c2cccc([N+](=O)[O-])c2C(=O)NC(C)C)c1 [compound 649]	–	–	A (100)	C (89-80)	–
COc1cc(NC(=O)c2c(I)cccc2C(=O)NC(C)C)ccc1OC(F)F [compound 450]	–	–	A (100)	C (89-80)	–
Cc1cc(OC(F)(F)F)ccc1NC(=O)c1c(I)cccc1C(=O)NC(C)c1ccccn1 (stereo not shown) [compound 1776]	–	–	–	–	Insecticidal effect (Test Example 1), judged from mortality [1]: A (100); Insecticidal effect (Test Example 3), judged from mortality [2, 6]: A (100)
Cc1c(NC(=O)c2c(Br)cccc2C(=O)NC(C)C)ccc(OC(F)F)c1Cl [compound 332]	–	–	–	–	Insecticidal effect, Test Example 1 [1, 5]: A (100); Insecticidal effect, Test Example 3 [2, 6]: A (100)
Cc1cc(Cl)ccc1NC(=O)c1c(F)ccc(F)c1C(=O)NC(C)C [compound 582]	–	–	A (100)	A (100)	–
CC(C)NC(=O)c1c(C(=O)Nc2ccc(C(C)C)cc2)cccc1[N+](=O)[O-] [compound 604]	–	–	A (100)	D (79-50)	–
CC(C)NC(=O)c1ccccc1C(=O)Nc1ccc(C(F)(C(F)(F)F)C(F)(F)F)cc1Cl [compound 46]	–	–	–	–	Insecticidal effect, Test Example 1 [1, 5]: A (100); Insecticidal effect, Test Example 3 [2, 6]: B (99-90)
CC(C)NC(=O)c1ccccc1C(=O)Nc1ccc(SC(F)(F)F)cc1 [compound 995]	A (100)	A (100)	–	–	–
Cc1cc(OC(F)(F)C(F)(F)c2ccccc2)ccc1NC(=O)c1cccc([N+](=O)[O-])c1C(=O)NC(C)C [compound 1089]	A (100)	A (100)	–	–	–
CC(C)NC(=O)c1c(Cl)cccc1C(=O)Nc1ccc(OC(F)F)c(F)c1 [compound 137]	–	–	–	–	Insecticidal effect, Test Example 1 [1, 5]: A (100); Insecticidal effect, Test Example 3 [2, 6]: A (100)
Cc1cc(Oc2cccc(C(F)(F)F)c2)ccc1NC(=O)c1cccc([N+](=O)[O-])c1C(=O)NC(C)C [compound 724]	–	–	A (100)	B (99-90)	–
Cc1cc(OC(F)(F)F)ccc1NC(=O)c1ccc(F)c(F)c1C(=O)NC(C)(C)C [compound 1284]	A (100)	A (100)	–	–	–
CC(C)NC(=O)c1ccccc1C(=O)Nc1ccc2c(c1)OC(F)(F)C(F)(F)O2 [compound 975]	A (100)	A (100)	–	–	–
